In US8618154B2, “LXR modulators” (Bristol-Myers Squibb Company, priority 2009, dated 2013):

Test: High throughput metabolic stability in human microsomes
Format: in vitro ADME
Conditions: parent compound remaining at 10 minutes, human liver microsomes
Protocol: The metabolic stability assay evaluates CYP-mediated metabolic stability in vitro using Human liver microsomes after a ten-minute incubation.
Test compound is received as a 3.5 mM stock solution in 100 percent DMSO. Compound is diluted to create a 50 μM acetonitrile (ACN) solution containing 1.4% DMSO, which is then used as a 100× stock for incubation with human liver microsomes. Each compound is tested in duplicate. Compound, NADPH and liver microsome solutions are combined for incubation in three steps: • 1) 152 μl of liver microsome suspension, protein concentration of 1.1 mg/ml in 100 mM NaPi, pH 7.4, 5 mM MgCl2 buffer, is pre-warmed at 37° C. • 2) 1.7 μl of 50 μM compound (98.6% ACN, 1.4% DMSO) is added to the same tube and pre-incubated at 37° C. for 5 minutes. • 3) The reaction is initiated by the addition of 17 μl of pre-warmed 10 mM NADPH solution in 100 mM NaPi, pH 7.4.
Reaction components are mixed well, and 75 μl are immediately transferred into 150 μl quench/stop solution (zero-time point, T0). Reactions are incubated at 37° C. for 10 minutes and then an additional 75 μl aliquot is transferred into 150 μl quench solution. Acetonitrile containing 100 μM DMN (a UV standard for injection quality control), is used as the quench solution to terminate metabolic reactions.
Quenched mixtures are centrifuged at 1500 rpm (˜500× g) in an Allegra X-12 centrifuge, SX4750 rotor (Beckman Coulter Inc., Fullerton, Calif.) for fifteen minutes to pellet denatured microsomes. A volume of 90 μl of supernatant extract, containing the mixture of parent compound and its metabolites, is then transferred to a separate 96-well plate for UV-LC/MS-MS analysis to determine the per cent of parent compound that is remaining in the mixture.
The mass spectrometric conditions obtained from automated infusion are used to analyze incubation samples from the Metabolic Stability assay. The injection volume is 5 μl and the flow rate is 0.8 ml/min. The gradient used is show in the table below. All samples are injected with the gradient using mobile phase A and B first. If necessary (for instance, for chromatographic reasons), samples are re-injected with the same gradient, but using mobile phase C and D. All LC-MS/MS analysis parameters are captured electronically in the raw data files.
Peak integration is performed with the Xcalibur™ software. The percent remaining calculation is performed by comparing the LC-MS/MS peak areas from the T10minute samples to those from the T0minute samples for each compound.

Structure (SMILES)	Human Microsome % Remaining [%]
CC(C)(O)c1cn(-c2ccc(-c3cccc(S(C)(=O)=O)c3)cc2)c(C(C)(C)c2ccccc2Cl)n1 [Compound No. 19, Table 1, WO 2007/002563, reference compound]	>80
Cc1cc(-c2cc(F)c(CO)c(S(C)(=O)=O)c2)ccc1-n1cc(C(C)(C)O)nc1C(C)(C)c1c(F)cccc1Cl [Example 2, 2-(2-(2-(2-chloro-6-fluorophenyl)propan-2-yl)-1-(3′-fluoro-4′-(hydroxymethyl)-3-methyl-5′-(methylsulfonyl)biphenyl-4-yl)-1H-imidazol-4-yl)propan-2-ol]	>80
CC(C)(O)c1cn(-c2ccc(-c3cc(F)c(CO)c(S(C)(=O)=O)c3)cc2Cl)c(C(C)(C)c2c(Cl)cccc2Cl)n1 [Example 3, 2-(1-(3-chloro-3′-fluoro-4′-(hydroxymethyl)-5′-(methylsulfonyl)biphenyl-4-yl)-2-(2-(2,6-dichlorophenyl)propan-2-yl)-1H-imidazol-4-yl)propan-2-ol]	>80
CC(C)(O)c1cn(-c2ccc(-c3cc(F)c(CO)c(S(C)(=O)=O)c3)cc2F)c(C(C)(C)c2ccccc2Cl)n1 [Example 6, 2-(2-(2-(2-Chloro-phenyl)propan-2-yl)-1-(3,3′-difluoro-4′-hydroxymethyl-5′-(methylsulfonyl)biphenyl-4-yl)-1H-imidazol-4-yl)-propan-2-ol]	>80
CC(C)(O)c1cn(-c2ccc(-c3cc(F)c(CO)c(S(C)(=O)=O)c3)cc2F)c(C(C)(C)c2c(F)cccc2Cl)n1 [Example 7, 2-(2-(2-(2-chloro-6-fluorophenyl)propan-2-yl)-1-(3,3′-difluoro-4′-(hydroxymethyl)-5′-(methylsulfonyl)biphenyl-4-yl)-1H-imidazol-4-yl)propan-2-ol]	>80
CC(C)(O)c1cn(-c2ccc(-c3cc(F)c(CO)c(S(C)(=O)=O)c3)cc2F)c(C(C)(C)c2ccccc2F)n1 [Example 8, 2-{1-(3,3′-Difluoro-4′-hydroxymethyl-5′-methanesulfonyl-biphenyl-4-yl)-2-[2-(2-fluorophenyl)propan-2-yl]-1H-imidazol-4-yl}-propan-2-ol]	>80
CC(C)(O)c1cn(-c2ccc(-c3cc(F)c(CO)c(S(C)(=O)=O)c3)cc2F)c(C(C)(C)c2c(Cl)cccc2Cl)n1 [Example 9, 2-(2-(2-(2,6-dichlorophenyl)propan-2-yl)-1-(3,3′-difluoro-4′-(hydroxymethyl)-5′-(methylsulfonyl)biphenyl-4-yl)-1H-imidazol-4-yl)propan-2-ol]	>80
CC(C)(O)c1cn(-c2ccc(-c3cc(F)c(CO)c(S(C)(=O)=O)c3)cc2F)c(Cc2ccccc2C(F)(F)F)n1 [Example 12, 2-(1-(3,3′-difluoro-4′-(hydroxymethyl)-5′-(methylsulfonyl)biphenyl-4-yl)-2-(2-(trifluoromethyl)benzyl)-1H-imidazol-4-yl)propan-2-ol]	>80
CC(C)(O)c1cn(-c2ccc(-c3cc(F)c(CO)c(S(C)(=O)=O)c3)cc2F)c(Cc2ccc(F)cc2Cl)n1 [Example 14, 2-(2-(2-chloro-4-fluorobenzyl)-1-(3,3′-difluoro-4′-(hydroxymethyl)-5′-(methylsulfonyl)biphenyl-4-yl)-1H-imidazol-4-yl)propan-2-ol]	>80
CC(C)(O)c1cn(-c2ccc(-c3cc(F)c(CO)c(S(C)(=O)=O)c3)cc2F)c(Cc2ccccc2F)n1 [Example 16, 2-(1-(3,3′-difluoro-4′-(hydroxymethyl)-5′-(methylsulfonyl)biphenyl-4-yl)-2-(2-fluorobenzyl)-1H-imidazol-4-yl)propan-2-ol]	>80
CC(c1c(Cl)cccc1Cl)c1nc(C(C)(C)O)cn1-c1ccc(-c2cc(F)c(CO)c(S(C)(=O)=O)c2)cc1F (stereo not drawn) [Example 21, 2-{2-[1-(2,6-dichlorophenyl)ethyl]-1-[3,3′-difluoro-4′-(hydroxymethyl)-5′-(methylsulfonyl)biphenyl-4-yl]-1H-imidazol-4-yl}propan-2-ol]	>80

Continued, values first:

Human Microsome % Remaining [%]	Structure (SMILES)
>80	CC(C)(O)c1cn(-c2ccc(-c3cc(F)c(CO)c(S(C)(=O)=O)c3)cc2)c(C(C)(C)c2ccccc2F)n1 [Example 1, 2-(1-(3′-fluoro-4′-(hydroxymethyl)-5′-(methylsulfonyl)biphenyl-4-yl)-2-(2-(2-fluorophenyl)propan-2-yl)-1H-imidazol-4-yl)propan-2-ol]
>80	CC(C)(O)c1cn(-c2ccc(-c3cc(F)c(CO)c(S(C)(=O)=O)c3)cc2)c(C(C)(C)c2cccc(F)c2Cl)n1 [Example 4, 2-(2-(2-(2-chloro-3-fluorophenyl)propan-2-yl)-1-(3′-fluoro-4′-(hydroxymethyl)-5′-(methylsulfonyl)biphenyl-4-yl)-1H-imidazol-4-yl)propan-2-ol]
>80	CC(C)(O)c1cn(-c2ccc(-c3cc(F)c(CO)c(S(C)(=O)=O)c3)cc2)c(C(C)(C)c2c(Cl)cccc2Cl)n1 [Example 5, 2-(2-(2-(2,6-dichlorophenyl)propan-2-yl)-1-(3′-fluoro-4′-(hydroxymethyl)-5′-(methylsulfonyl)biphenyl-4-yl)-1H-imidazol-4-yl)propan-2-ol]
>80	CC(C)(O)c1cn(-c2ccc(-c3cc(F)c(CO)c(S(C)(=O)=O)c3)cc2F)c(Cc2ccc(Cl)cc2Cl)n1 [Example 11, 2-(2-(2,4-dichlorobenzyl)-1-(3,3′-difluoro-4′-(hydroxymethyl)-5′-(methylsulfonyl)biphenyl-4-yl)-1H-imidazol-4-yl)propan-2-ol]
>80	CC(C)(O)c1cn(-c2ccc(-c3cc(F)c(CO)c(S(C)(=O)=O)c3)cc2Cl)c(Cc2ccc(F)cc2Cl)n1 [Example 13, 2-(1-(3-chloro-3′-fluoro-4′-(hydroxymethyl)-5′-(methylsulfonyl)biphenyl-4-yl)-2-(2-chloro-4-fluorobenzyl)-1H-imidazol-4-yl)propan-2-ol]
>80	CC(C)(O)c1cn(-c2ccc(-c3cc(F)c(CO)c(S(C)(=O)=O)c3)cc2)c(Cc2ccc(Cl)cc2Cl)n1 [Example 15, 2-(2-(2,4-dichlorobenzyl)-1-(3′-fluoro-4′-(hydroxymethyl)-5′-(methylsulfonyl)biphenyl-4-yl)-1H-imidazol-4-yl)propan-2-ol]
>80	Cc1ccccc1Cc1nc(C(C)(C)O)cn1-c1ccc(-c2cc(F)c(CO)c(S(C)(=O)=O)c2)cc1 [Example 17, 2-(1-(3′-fluoro-4′-(hydroxymethyl)-5′-(methylsulfonyl)biphenyl-4-yl)-2-(2-methylbenzyl)-1H-imidazol-4-yl)propan-2-ol]
>80	CC(C)(O)c1cn(-c2ccc(-c3cc(F)c(CO)c(S(C)(=O)=O)c3)cc2)c(Cc2c(Cl)cccc2Cl)n1 [Example 18, 2-(2-(2,6-dichlorobenzyl)-1-(3′-fluoro-4′-(hydroxymethyl)-5′-(methylsulfonyl)biphenyl-4-yl)-1H-imidazol-4-yl)propan-2-ol]
>80	CC(C)(O)c1cn(-c2ccc(-c3cc(F)c(CO)c(S(C)(=O)=O)c3)cc2)c(Cc2cc(F)ccc2Cl)n1 [Example 19, 2-[2-(2-Chloro-5-fluoro-benzyl)-1-(3′-fluoro-4′-hydroxymethyl-5′-methanesulfonyl-biphenyl-4-yl)-1H-imidazol-4-yl]-propan-2-ol]
>80	CC(C)(O)c1cn(-c2ccc(-c3cc(F)c(CO)c(S(C)(=O)=O)c3)cc2F)c(Cc2ccccc2Cl)n1 [Example 20, 2-[2-(2-Chloro-benzyl)-1-(3,3′-difluoro-4′-hydroxymethyl-5′-methanesulfonyl-biphenyl-4-yl)-1H-imidazol-4-yl]-propan-2-ol]
